Results from patent US20190358206A1, “TOPICAL FORMULATIONS OF BIARYL HETEROCYCLIC COMPOUNDS AND METHODS OF USE THEREOF” (Melinta Subsidiary Corp., priority 2016, published 2019).
Converted amounts (≈) assume the structure as drawn.

Experiments:
[1] = Solubility of salts in approved topical solvents; assay type: physicochemical
Experimental: The solubility of radezolid HCl salt in various approved topical solvents was measured at 19-21° C. by adding a known amount of the radezolid HCl salt to a known amount of the solvent. Increasing amounts of the radezolid HCl salt were added if the solvent was not saturated.
The solubility of radezolid esylate and mesylate salts in various approved topical solvents was measured at 19-21° C. by adding a known amount of the radezolid salts to a known amount of the solvent. Increasing amounts of the radezolid salts were added if the solvent was not saturated.

[2] = Dynamic vapor sorption/desorption (DVS); assay type: physicochemical
Experimental: Dynamic vapor sorption/desorption (DVS) data were collected on a VTI SGA-100 Vapor Sorption Analyzer. […] Samples were not dried prior to analysis. Equilibrium criteria used for analysis were less than 0.0100% weight change in 5 minutes, with a maximum equilibration time of 3 hours if the weight criterion was not met. Data were not corrected for the initial moisture content of the samples. Sodium chloride and polyvinylpyrrolidine (PVP) were used as calibration standards.

physchem = assay type: physicochemical; conditions: pH 5.5, aqueous buffer
[3] = Solubility of salts in water by HPLC at 23° C.; assay type: physicochemical; conditions: for Adjusted pH: pH after adjustment to approximately 3.5; for Native pH: supernatant of saturated solution in water
Experimental: In another set of experiments, solubility of various radezolid salts was determined by HPLC. Approximately 1 mL of saturated solution (with excess of solid in solution) of each salt was prepared in water. The mixture was further mixed overnight on a slurry wheel then centrifuged on a desktop centrifuge at maximum speed for approximately 5 min. The supernatant was collected, and pH was measured. Solubility was determined at the native pH. Then the pH was adjusted to approximately 3.5 with sodium hydroxide solution or an acid solution in which salt was generated. The supernatant was filtered through a 0.2 µm nylon syringe filter and diluted into 0.1% formic acid solution immediately after filtration for HPLC. All HPLC analyses were performed using an Agilent 1100 series liquid chromatograph equipped with a diode array detector, degasser, quaternary pump, and an autosampler. […] The column temperature was set to 30° C., and the detector wavelength was 270 nm with a bandwidth of 8 nm and a reference wavelength of 360 nm. The mobile phase A was 0.1% formic acid in water (HPLC grade), mobile phase B was 0.1% formic acid in methanol (HPLC grade). […] The injection volume was 5 μL.

[4] = test system: Staphylococcus aureus 01A1095, Mac-R; experiment: MIC against ribosome-based resistance phenotypes; assay type: cell-based; conditions: read-out: Minimum Inhibitory Concentration (MIC)
[5] = Solubility of salts in water, visual/microscopic
Experimental: Approximately 2-3.5 mg of each salt was weighed into a glass vessel at ambient temperature. HPLC grade water, 200 μL, was added to each and stirred with a stir bar for two hours. Samples were inspected for solubility both visually and/or microscopically using a Carl Zeiss SV8 stereomicroscope.

S. aureus ATCC 29213 [6] = experiment: Broth microdilution MIC (CLSI); assay type: cell-based
[7] = test system: B. thetaiotaomicron ATCC 29741; experiment: microbe, parasite or virus in culture; assay type: cell-based; conditions: for MIC: Bacteroides thetaiotaomicron, ATCC29741, read-out: MIC, Broth
S. aureus ATCC 29213 [8] = experiment: Agar dilution MIC (CLSI reference method); assay type: cell-based; conditions: Staphylococcus aureus, ATCC29213
[9] = Long-term rat safety study (body weight, survival, clinical pathology, exposure)
P. granulosum ATCC 25746 [10] = experiment: Broth microdilution MIC (CLSI); assay type: cell-based
G. vaginalis ATCC 14018 = experiment: Agar dilution MIC (CLSI reference method); assay type: cell-based; conditions: G. vaginalis (isolates of Table 1)
P. granulosum ATCC 25746 [11] = experiment: Agar dilution MIC (CLSI reference method); assay type: cell-based
[12] = Granuloma pouch: bacterial burden and radezolid levels in pouch and plasma; assay type: in vivo; conditions: FIGS. 3-4
F. magna ATCC 15794 = experiment: Agar dilution MIC (CLSI reference method); assay type: cell-based
[13] = in vivo
ten isolates (ATCC) = assay type: cell-based; conditions: for all organisms
P. acnes ATCC 11828 = experiment: Agar dilution MIC (CLSI reference method); assay type: cell-based; conditions: P. acnes (isolates of Table 1)
G. vaginalis ATCC 49145 = experiment: Broth microdilution MIC (CLSI); assay type: cell-based; conditions: G. vaginalis 49145
[14] = Solubility of free base in oily excipients; assay type: physicochemical; conditions: 19-21° C.
Experimental: The solubility of radezolid free base in various oily excipients was measured at 19-21° C. by adding a known amount of the free base to a known amount of the oily excipients. Increasing amounts of the free base were added if the oily excipient was not saturated.
In some embodiments, facial acne formulations are disclosed herein. In some embodiments, the amount of oil in an emulsion base (cream or lotion) is between 10-15% w/w. In further embodiments, the amount of oil in an emulsion base (cream or lotion) is less than 10%. To obtain a 1% w/w formulation of the free base dissolved in a dispersed oil phase, its solubility in that oil phase needs to be approximately 10% w/w. Radezolid free base was screened in oily excipients at a level of approximately 5% w/w. If an oily excipient could not dissolve at least 5% w/w, it would be unlikely to contribute to higher solubility in other oily excipients (i.e. low potential for synergy).

[15] = test system: mammalian cells (e.g., defense cells, macrophages, lung cells, and non-phagocytic cells); conditions: cited from earlier work

**Q.** What does the source list for CC(=O)NC[C@H]1CN(c2ccc(-c3ccc(CNCc4c[nH]nn4)cc3)c(F)c2)C(=O)O1.Cl [Hydrochloride, (5S)—N-[3-(2-Fluoro-4′-{[(1H-[1,2,3]triazol-4-ylmethyl)-amino]-methyl}-biphenyl-4-yl)-2-oxo-oxazolidin-5-ylmethyl]-acetamide Chloride]?
**A.** Solubility ([1]; 50% Ethanol/50% phosphate buffer (pH = 7.4), 19-21° C.): <0.2 % w/w; Solubility ([1]; 50% Ethanol/50% water, 19-21° C.): <0.6 % w/w; Solubility ([1]; Diethylene glycol monoethyl ether (Transcutol), 19-21° C.): <0.2 % w/w; Solubility ([1]; Ethanol, 19-21° C.): <0.2 % w/w; Solubility ([1]; Glycerin, 19-21° C.): <0.2 % w/w; Solubility ([1]; Hexylene glycol, 19-21° C.): <0.2 % w/w; Solubility ([1]; PEG 300, 19-21° C.): <0.2 % w/w; Solubility ([1]; Phosphate buffer (pH = 7.4), 19-21° C.): <0.2 % w/w; Solubility ([1]; Propylene glycol, 19-21° C.): <0.2 % w/w; DVS Desorption: weight loss from 95 to 5% RH [2]: Desorption: 0.069% weight loss; DVS Sorption: weight gain from 5 to 95% RH [2]: 0.064% weight gain from 5 to; DVS Sorption: weight gain upon equilibration at 5% RH [2]: Sorption: 0.03% weight gain; Solubility (physchem): > 100 µg/mL; Solubility ([3]; pH 4.6, thermodynamic from solid, water, 23° C., HPLC, read-out: Solubility at Native pH): 1700 µg/mL; Adjusted pH [3]: 3.5; Native pH [3]: 4.6

**Q.** With CC[C@H]1OC(=O)[C@H](C)[C@@H](O[C@H]2C[C@@](C)(OC)[C@@H](O)[C@H](C)O2)[C@H](C)[C@@H](O[C@@H]2O[C@H](C)C[C@H](N(C)C)[C@H]2O)[C@](C)(O)C[C@@H](C)CN(C)[C@H](C)[C@@H](O)[C@]1(C)O [Azithromycin, azithromycin] as the compound, how does the MIC [4] read?
**A.** The MIC was 128 µg/mL (≈ 171 µM).

**Q.** With Phosphate as the compound, how does the Solubility [5] read?
**A.** Its Solubility is 1100 µg/mL.

**Q.** Which “MIC lower than radezolid” value (S. aureus ATCC 29213 [6]) does the source give for C[C@H]1c2cccc(O)c2C(=O)C2=C(O)[C@]3(O)C(=O)C(C(N)=O)=C(O)[C@@H](N(C)C)[C@@H]3[C@@H](O)[C@@H]21 [DOX, doxycycline] here?
**A.** The value was 4 fold.

**Q.** What about the “MIC more potent than radezolid” value ([7]; B. thetaiotaomicron) of the same compound?
**A.** Its value is 4 fold.

**Q.** What about the MIC [7] of the same compound?
**A.** The MIC was 2 µg/mL (≈ 4.5 µM).

**Q.** With CCC[C@@H]1C[C@@H](C(=O)N[C@@H]([C@H]2O[C@H](SC)[C@H](O)[C@@H](O)[C@H]2O)[C@H](C)Cl)N(C)C1 [Clindamycin, clindamycin] as the compound, how does the “MIC lower than radezolid” value (S. aureus ATCC 29213 [6]) read?
**A.** The value was 8 fold.

**Q.** And the MIC (S. aureus ATCC 29213 [8])?
**A.** The MIC was 0.25 µg/mL (≈ 0.588 µM).

**Q.** With CC[C@H]1OC(=O)[C@H](C)[C@@H](O[C@H]2C[C@@](C)(OC)[C@@H](O)[C@H](C)O2)[C@H](C)[C@@H](O[C@@H]2O[C@H](C)C[C@H](N(C)C)[C@H]2O)[C@](C)(O)C[C@@H](C)C(=O)[C@H](C)[C@@H](O)[C@]1(C)O [ERY, erythromycin] as the compound, how does the MIC [7] read?
**A.** The MIC was 16 µg/mL (≈ 21.8 µM).

**Q.** What does the source list for CC(=O)NC[C@H]1CN(c2ccc(-c3ccc(CNCc4cnn[nH]4)cc3)c(F)c2)C(=O)O1 [Radezolid, N-[3-(2-Fluoro-4′-{[(1H-[1,2,3]triazol-4-ylmethyl)-amino]-methyl}-biphenyl-4-yl)-2-oxo-oxazolidin-5-(S)-ylmethyl]-acetamide]?
**A.** Safety margin (Rat NOAEL AUC/Human efficacious AUC) ([9]; rat 200 mg/kg Day 29 vs human 300 mg): 30.8x; Broth microdilution: more active than linezolid (P. granulosum ATCC 25746 [10]): 8 fold; Agar dilution MIC more potent than linezolid (G. vaginalis ATCC 14018): 8 fold; Agar dilution MIC more potent than linezolid (P. granulosum ATCC 25746 [11]): 8 fold; MIC (S. aureus ATCC 29213 [8]): 1 µg/mL (≈ 2.28 µM); radezolid levels in granuloma pouch versus plasma over time [12]: remain high in granuloma pouch even as they decline in the plasma; Agar dilution MIC more potent than linezolid (F. magna ATCC 15794): 4 fold; survival ([13]; both, rat): 100%; safety in long-term rat studies, overall [13]: good safety; changes in hematology, coagulation, clinical chemistry, or urinalysis ([13]; rat): No test article-related changes were observed; agar dilution MICs, range over organisms (ten isolates (ATCC)): 0.06 to 1 µg/mL; Agar dilution MIC more potent than linezolid (P. acnes ATCC 11828): 4 fold; Broth microdilution: more active than linezolid (G. vaginalis ATCC 49145): 8 fold; Solubility ([14]; Benzyl benzoate (BB)): <1.5 % w/w; Solubility ([14]; Cyclomethicone): <0.75 % w/w; Solubility ([14]; Diisopropyl adipate (DIA)): <1.5 % w/w; Solubility ([14]; Mineral oil): <1 % w/w; Solubility ([14]; Oleic acid): <0.75 % w/w; accumulation in mammalian cells, greater extent than linezolid [15]: 17 fold; share accumulating in the cytosol of cells [15]: Approximately 60%; share accumulating in the lysosome [15]: approximately 40%

**Q.** For O=S(=O)(O)CCS(=O)(=O)O [Ethane-1,2-disulfonate], which “DVS Desorption: weight loss from 95 to 5% RH” value [2] is on record?
**A.** The value was “Desorption: 2.388% weight loss”.

**Q.** And the “DVS Sorption: weight loss upon equilibration at 5% RH” value [2]?
**A.** The value was “Sorption: 0.017% weight loss”.

**Q.** And the “Adjusted pH” value [3]?
**A.** Its value is 3.6.

**Q.** And the “Native pH” value [3]?
**A.** Its value is 2.0.

**Q.** What about the “Solubility at Native pH” value ([3]; water, 23° C., HPLC) of the same compound?
**A.** The value was greater than 133.2 mg/mL.

**Q.** And the “Solubility at Adjusted pH” value ([3]; water, 23° C., HPLC, pH adjusted to approximately 3.5)?
**A.** The value was greater than 116.9 mg/mL.

**Q.** For Fumarate, which Solubility ([5]; HPLC grade water, ambient temperature) is on record?
**A.** Its Solubility is 2600 µg/mL.

**Q.** Which MIC [7] does the source give for CN(C)[C@@H]1C(O)=C(C(N)=O)C(=O)[C@@]2(O)C(O)=C3C(=O)c4c(O)cccc4[C@@](C)(O)[C@H]3C[C@@H]12 [TET, tetracycline] here?
**A.** Its MIC is 8 µg/mL (≈ 18 µM).

**Q.** With O=C(O)c1ccccc1O [Salicylate] as the compound, how does the Solubility [5] read?
**A.** Its Solubility is less than 30 µg/mL.

**Q.** With CC(=O)NC[C@H]1CN(c2ccc(N3CCOCC3)c(F)c2)C(=O)O1 [Linezolid, linezolid, reference compound] as the compound, how does the “hematology at unscheduled euthanization” value ([9]; rat, 100 mg/kg/day, day 75) read?
**A.** Its value is “decreased red cell mass, absolute reticulocyte and neutrophil counts”.

**Q.** And the MIC (S. aureus ATCC 29213 [8])?
**A.** The MIC was 2 µg/mL (≈ 5.93 µM).

**Q.** And the bone marrow cellularity ([13]; rat, 100 mg/kg/day)?
**A.** Its bone marrow cellularity is “decreased cellularity of sternal and femoral bone marrow”.

**Q.** With Cc1ncc([N+](=O)[O-])n1CCO [MET, metronidazole] as the compound, how does the MIC [7] read?
**A.** Its MIC is 4 µg/mL (≈ 23.4 µM).
